“Also recorded” adds a separate entry of the source.
Tests used:
[1] = tested on: radiolabelled DNA fragment; test: DNA-binding assay: electrophoretic mobility shift of a radiolabelled DNA fragment on polyacrylamide gel; conditions: for DNA mobility shift with increasing concentrations: polyacrylamide gel electrophoresis of radiolabelled DNA fragment
Excerpt: The assay used to determine the DNA-binding activity of the complexes is based on the assays developed by Lippard and coworkers for assaying the extent of DNA binding by cis-DDP, in which the electrophoretic mobility of a DNA molecule is altered by binding of the drug (Sundquist, 1990). Charge neutralization and DNA bending caused by binding of the divalent metal complex have been invoked to explain the observed mobility shift.

TFIIIA = target: T1, TFIIIA (Xenopus borealis, UniProt P17842); test: In vitro DNA-protein crosslinking assay (gel mobility shift), TFIIIA; assay type: biochemical; conditions: zinc finger transcription factor TFIIIA and DNA fragment bearing its recognition sequence
T1 sequence (P17842 1-339): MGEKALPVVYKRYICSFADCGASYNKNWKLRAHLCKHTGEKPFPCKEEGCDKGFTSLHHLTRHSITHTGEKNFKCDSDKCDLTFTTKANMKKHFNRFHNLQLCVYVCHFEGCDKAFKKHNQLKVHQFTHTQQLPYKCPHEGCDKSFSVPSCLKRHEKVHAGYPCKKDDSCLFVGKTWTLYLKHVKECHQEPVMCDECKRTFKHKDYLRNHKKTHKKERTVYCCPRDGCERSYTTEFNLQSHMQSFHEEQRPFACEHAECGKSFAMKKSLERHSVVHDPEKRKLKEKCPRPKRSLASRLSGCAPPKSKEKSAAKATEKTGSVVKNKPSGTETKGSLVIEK
Excerpt: (§1) (Pried & Crothers, 1981; Garner & Revsin, 1981).
(§2) Proteins and DNA Probes. TFIIIA from Xenopus Borealis was provided by T. Tullius (Johns Hopkins University) and A. Wolffe (NIH). Fur was purified based on the method of Neilands and coworkers. MerR extract was obtained and quantified as described (O'Halloran, 1989). DNA probes used in TFIIIA, Fur, and MerR gel mobility shift assays were derived from plasmids pXBS201 (obtained from T. Tullius), pGMer and pBIB, respectively. The 249-bp BamHI-HindIII fragment from pXBS201, 309-bp XhoI-PvuII fragment from pBIB and 411-bp BssHII-BssHII fragment from pGMer are labeled with [α-^32 P]dNTPs (Amersham) by the Klenow fragment of DNA polymerase (Bethesda Research Laboratories). The labeled fragments are then isolated and purified by gel electrophoresis. DNA concentrations were determined by optical density at 260 nm by using a molar extinction coefficient of 1.3×10^4 per nucleotide pair.
(§3) Crosslinking Activity Assay. DNA-protein-crosslinker are incubated in 20 μl (final volume) of binding buffer. The buffer for TFIIIA and MerR extract reaction is 20 mM Hepes [pH 7.5], 50 mM K2 SO4, 10 μMZnsO4, 3 mM MgCl2, 10% glycerol and 70 μg/ml Albumin, Bovine-carboxymethyl [c-BSA] (Sigma). The Fur incubation buffer is 20 mM Bis-Tris/Borate [pH 7.0], 50 mM K2 SO4, 5% glycerol, 1 mM MgCl2, 5 μG/ml salmon sperm DNA and 100 μg/ml c-BSA. […]

MerR protein = target: T2, MerR protein (Pseudomonas aeruginosa, UniProt P0A183); test: In vitro DNA-protein crosslinking assay (gel mobility shift), MerR; assay type: biochemical; conditions: MerR and DNA fragment bearing its recognition sequence
T2 construct: made in house
T2 sequence (P0A183 whole entry, the tested form may be a part): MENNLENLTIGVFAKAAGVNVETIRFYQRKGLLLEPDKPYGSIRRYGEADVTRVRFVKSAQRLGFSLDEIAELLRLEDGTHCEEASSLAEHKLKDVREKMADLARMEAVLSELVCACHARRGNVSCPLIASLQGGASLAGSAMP
Description: FIGS. 8-11: In vitro assay for crosslinking of proteins to DNA by 5-Chloromercuri-1,2-pentanediamine)dichloro platinum(II). Lane 1:4.5 pM DNA, 500 cpm Lane 2: DNA+460 pM MerR dimer Lane 3: DNA+protein+2.4 nM unlabeled competitor DNA Lane 4: DNA+protein+25 mM KCN Lane 5:DNA-protein complex treated with 10 mM 1 prior to competition. Lane 6: DNA-protein complex treated with 2 mM 1 prior to competition. Lane 7: DNA-protein complex treated with 0.4 mM crosslinker prior to competition Lanes 8-10: Reactions as for lane 5-7, pretreated with 25 mM KCN prior to competition. (Grant)
as §1
Proteins and DNA Probes. TFIIIA from Xenopus Borealis was provided by T. Tullius (Johns Hopkins University) and A. Wolffe (NIH). Fur was purified based on the method of Neilands and coworkers. MerR extract was obtained and quantified as described (O'Halloran, 1989). DNA probes used in TFIIIA, Fur, and MerR gel mobility shift assays were derived from plasmids pXBS201 (obtained from T. Tullius), pGMer and pBIB, respectively. […] DNA concentrations were determined by optical density at 260 nm by using a molar extinction coefficient of 1.3×10^4 per nucleotide pair. […]

Fur = target: T3, Fur (Escherichia coli, UniProt P0A9A9); test: In vitro DNA-protein crosslinking assay (gel mobility shift), Fur; assay type: biochemical; conditions: Fur and DNA fragment bearing its recognition sequence
T3 construct: made in house
T3 sequence (P0A9A9 2-148): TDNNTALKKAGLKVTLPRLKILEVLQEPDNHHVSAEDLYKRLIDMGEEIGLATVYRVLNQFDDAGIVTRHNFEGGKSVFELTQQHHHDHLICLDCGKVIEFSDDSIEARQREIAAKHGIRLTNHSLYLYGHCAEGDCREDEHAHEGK
Excerpt: as §1, §2, §3

[2] = Solubility of the cross-linker complex in solvents; assay type: physicochemical
Excerpt: The cross-linker species of the present invention has been characterized by a combination of analytical and spectroscopic techniques. […] The complex is quite soluble in DMSO, although a warning has been issued concerning the compositions of DMSO solutions of cisplatin derivatives (Sundquist, 1987). The proton NMR spectrum of the complex in d7-DMF is poorly resolved, and the resonances due to the residual protons in the deuterated solvent tend to obscure parts of the spectrum of the complex.
This appears to be an effect of particle size on dissolution rate, since no differences can be discerned in the infrared spectra of the complex before or after this treatment. In particular there is no evidence for coordinated DMSO in the region 1000-1200 cm-^1.

[3] = Kinetics of the reaction of the complex with DMSO (UV spectroscopy); assay type: physicochemical; conditions: room temperature; in accord with published rate data for cis-Pt(NH3)2Cl2
Description: ^1 H, ^13 C, ^195 Pt and ^199 Hg NMR spectra were recorded on a Varian VXR-400 Fourier Transform spectrometer, operating at 399.95 MHZ (^1 H), […] (^13 C), 85.736 MHz (^195 Pt), and 71.600 MHz (^199 Hg). Standard acquisition parameter files were used for the accumulation of ^1 H and ^13 C spectra. For ^195 Pt NMR, a spectral window of 50 KHz was used, with a pulse width of 30 μsec, and a pulse delay of 100 μsec. Broadband proton decoupling was employed during acquisition of the spectra. ^195 Pt spectra were referenced externally using a 0.1M aqueous solution of K2 PtCl4 in 0.1M KCl. Chemical shifts are reported relative to K2 PtCl6 =0 ppm. (δK2 PtCl4 =[…]). Proton-decoupled ^199 Hg NMR spectra were recorded using a spectral window of 30 KHz, a pulse width of 30 μsec, and a pulse delay of 100 μsec. Chemical shifts are reported relative to external Hg(CH3)2 (0 ppm). Mass spectra were recorded using a VG instruments VG70-250 S/SE instrument. Infrared spectra were recorded using either a Perkin-Elmer PE-283 or a Mattson Alpha Centauri FTIR spectrometer. UV spectra were obtained using a Hewlett-Packard HP8452 spectrophotometer running off of an IBM-AT personal computer. Kinetic measurements were controlled using the Hewlett-Packard Multicell Kinetics Module. Data manipulation and plotting was performed using the program Igor^24 running on a Macintosh IIx personal computer. […]

Stability at low pH = assay type: physicochemical
[4] = cited from earlier work

Row | Molecule | DNA mobility shift with increasing concentrations [1] | induction of DNA-protein cross-links, TFIIIA (TFIIIA) | binding to DNA [1] | induction of DNA-protein cross-links, MerR (MerR protein) | induction of DNA-protein cross-links, Fur (Fur) | toxicity in phase I trials [4] | other results
1 | NCCN.[Cl][Pt][Cl] [PtenCl2] | saturation binding curve |  |  |  |  |  | 
2 | N.N.[Cl][Pt][Cl] [cisplatin, cis-dicholorodiammineplatinum(II), reference compound] |  | only the latter reagent can efficiently induce DNA-protein cross-links | bind avidly to DNA | only the latter reagent can efficiently induce DNA-protein cross-links | only the latter reagent can efficiently induce DNA-protein cross-links |  | 
3 | 5-Chloromercuri-1,2-pentanediamine)dichloro platinum(II) [Merplatin] | saturation binding curve which is identical in form with a curve obtained by incubation of DNA with PtenCl2 | can efficiently induce DNA-protein cross-links | bind avidly to DNA | can efficiently induce DNA-protein cross-links | can efficiently induce DNA-protein cross-links |  | solubility in DMSO ([2]; DMSO): quite soluble; solubility in NMP after reprecipitation ([2]; NMP, after dissolution in DMSO and immediate precipitation with ethanol): readily soluble; solubility in amide solvents ([2]; dimethylformamide or 1-methylpyrrolidinone (NMP), complex as prepared in Example 1): limited solubility; also recorded: dissolves sparingly; concentration of solutions that can be prepared in amide solvents ([2]; dimethylformamide or NMP, complex as prepared in Example 1): ~ 10 mM; solubility in water and most organic solvents ([2]; water and most organic solvents, listed as complex): limited solubility; also recorded: low solubility; half-life of reaction with DMSO [3]: approximately 3 hours; stability at low pH (Stability at low pH): stable at low pH
4 | [CH3][Hg][Cl] [MeHgCl] | does not exhibit a mobility shift at all |  |  |  |  |  | 
5 | NCC1(CN)CCOCC1.O=C([O-])C1(C(=O)[O-])CCC1.[Pt+2] [enloplatin] |  |  |  |  |  | caused nephrotoxicity | 
6 | O=C([O-])C1(C(=O)[O-])CCC1.[NH-]CC(C[NH-])(CO)CO.[Pt+4] [zeniplatin] |  |  |  |  |  | caused nephrotoxicity | 

Reference: patent US5534542A, “Methods and materials relating to a bi-metallic cross-linking species” (priority 1994, dated 1996)
